Measurements reported in the supplement of paper PMC10307832.

How the values were obtained:
Assay in all cases: relative viability (nuclei count vs DMSO), 5 days (fraction); higher = more cells survive
CAL-12T = system: CAL-12T
In short: (§1)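 Medians of duplicate plates are given as relative viability. That measure is the nuclei count in treated wells divided by the count in vehicle wells. Counts were taken on 4× images of lung cancer cell lines in 1536-well plates, 5 days after pin-tool dosing the day after seeding with one drug alone or a fixed anchor-drug dose plus five library-drug doses (not always all listed) in √10 steps.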

COR-L 105 = system: COR-L 105
In short: as §1

ChaGo-K-1 = system: ChaGo-K-1
In short: as §1

EMC-BAC-2 = system: EMC-BAC-2
In short: as §1

EPLC-272H = system: EPLC-272H
In short: as §1

HCC-15 = system: HCC-15
In short: as §1

HCC-78 = system: HCC-78
In short: as §1

HOP-62 = system: HOP-62
In short: as §1

LXF-289 = system: LXF-289
In short: as §1

NCI-H1666 = system: NCI-H1666
In short: as §1

NCI-H1755 = system: NCI-H1755
In short: as §1

NCI-H1915 = system: NCI-H1915
In short: as §1

NCI-H1975 = system: NCI-H1975
In short: as §1

NCI-H2023 = system: NCI-H2023
In short: as §1

NCI-H2085 = system: NCI-H2085
In short: as §1

NCI-H2126 = system: NCI-H2126
In short: as §1

NCI-H3122 = system: NCI-H3122
In short: as §1

NCI-H322M = system: NCI-H322M
In short: as §1

NCI-H358 = system: NCI-H358
In short: as §1

NCI-H441 = system: NCI-H441
In short: as §1

UMC-11 = system: UMC-11
In short: as §1

With `CCN(CC)CCCCNc1ncc2cc(-c3cc(OC)cc(OC)c3)c(NC(=O)NC(C)(C)C)nc2n1` + Nc1nc2[nH]cc(CCc3ccc(C(=O)N[C@@H](CCC(=O)O)C(=O)O)cc3)c2c(=O)[nH]1 [Pemetrexed] (partner 0.2 µM) the relative viability (CAL-12T; first compound 0.01 µM) was 1.4, the relative viability (CAL-12T; first compound 0.03162 µM) was 1.2 and the relative viability (CAL-12T; first compound 0.1 µM) was 1.53. The relative viability (CAL-12T; first compound 0.3162 µM) was 1.44, the relative viability (CAL-12T; first compound 1 µM) was 1.1 and the relative viability (COR-L 105; first compound 0.01 µM) was 1.23. It also gave a relative viability (COR-L 105; first compound 0.03162 µM) of 1.12, a relative viability (COR-L 105; first compound 0.1 µM) of 1.18 and a relative viability (COR-L 105; first compound 0.3162 µM) of 1.47. The relative viability (COR-L 105; first compound 1 µM) was 1.05, the relative viability (ChaGo-K-1; first compound 0.01 µM) was 0.269 and the relative viability (ChaGo-K-1; first compound 0.03162 µM) was 0.407. It also gave a relative viability (ChaGo-K-1; first compound 0.1 µM) of 0.267, a relative viability (ChaGo-K-1; first compound 0.3162 µM) of 0.272 and a relative viability (ChaGo-K-1; first compound 1 µM) of 0.265. For the same molecule, the relative viability (EMC-BAC-2; first compound 0.03162 µM) was 0.46, the relative viability (EMC-BAC-2; first compound 0.1 µM) was 0.491 and the relative viability (EMC-BAC-2; first compound 0.3162 µM) was 0.479. For the same molecule, the relative viability (EMC-BAC-2; first compound 1 µM) was 0.489, the relative viability (EPLC-272H; first compound 0.01 µM) was 0.386 and the relative viability (EPLC-272H; first compound 0.03162 µM) was 0.271. For the same molecule, the relative viability (EPLC-272H; first compound 0.1 µM) was 0.334, the relative viability (EPLC-272H; first compound 0.3162 µM) was 0.317 and the relative viability (EPLC-272H; first compound 1 µM) was 0.26. The relative viability (HCC-15; first compound 0.01 µM) was 0.21, the relative viability (HCC-15; first compound 0.03162 µM) was 0.237 and the relative viability (HCC-15; first compound 0.1 µM) was 0.206. For the same molecule, the relative viability (HCC-15; first compound 0.3162 µM) was 0.209, the relative viability (HCC-15; first compound 1 µM) was 0.207 and the relative viability (HCC-78; first compound 0.01 µM) was 0.919. For the same molecule, the relative viability (HCC-78; first compound 0.03162 µM) was 0.933, the relative viability (HCC-78; first compound 0.1 µM) was 0.949 and the relative viability (HCC-78; first compound 0.3162 µM) was 0.947. The relative viability (HCC-78; first compound 1 µM) was 0.89, the relative viability (HOP-62; first compound 0.01 µM) was 0.33 and the relative viability (HOP-62; first compound 0.03162 µM) was 0.275. The relative viability (HOP-62; first compound 0.1 µM) was 0.362, the relative viability (HOP-62; first compound 0.3162 µM) was 0.314 and the relative viability (HOP-62; first compound 1 µM) was 0.351. For the same molecule, the relative viability (LXF-289; first compound 0.01 µM) was 0.923, the relative viability (LXF-289; first compound 0.03162 µM) was 1.02 and the relative viability (LXF-289; first compound 0.1 µM) was 0.907. For the same molecule, the relative viability (LXF-289; first compound 0.3162 µM) was 0.884, the relative viability (LXF-289; first compound 1 µM) was 0.849 and the relative viability (NCI-H1666; first compound 0.01 µM) was 0.814. The relative viability (NCI-H1666; first compound 0.03162 µM) was 0.796, the relative viability (NCI-H1666; first compound 0.1 µM) was 0.783 and the relative viability (NCI-H1666; first compound 0.3162 µM) was 0.942. For the same molecule, the relative viability (NCI-H1666; first compound 1 µM) was 0.808, the relative viability (NCI-H1755; first compound 0.01 µM) was 0.413 and the relative viability (NCI-H1755; first compound 0.03162 µM) was 0.572. The relative viability (NCI-H1755; first compound 0.1 µM) was 0.356, the relative viability (NCI-H1755; first compound 0.3162 µM) was 0.448 and the relative viability (NCI-H1755; first compound 1 µM) was 0.435. For the same molecule, the relative viability (NCI-H1915; first compound 0.01 µM) was 0.511, the relative viability (NCI-H1915; first compound 0.03162 µM) was 0.521 and the relative viability (NCI-H1915; first compound 0.1 µM) was 0.558. It also gave a relative viability (NCI-H1915; first compound 0.3162 µM) of 0.518, a relative viability (NCI-H1915; first compound 1 µM) of 0.445 and a relative viability (NCI-H1975; first compound 0.01 µM) of 0.286. For the same molecule, the relative viability (NCI-H1975; first compound 0.03162 µM) was 0.306, the relative viability (NCI-H1975; first compound 0.1 µM) was 0.318 and the relative viability (NCI-H1975; first compound 0.3162 µM) was 0.331. For the same molecule, the relative viability (NCI-H1975; first compound 1 µM) was 0.283, the relative viability (NCI-H2023; first compound 0.01 µM) was 0.264 and the relative viability (NCI-H2023; first compound 0.03162 µM) was 0.225. It also gave a relative viability (NCI-H2023; first compound 0.1 µM) of 0.323, a relative viability (NCI-H2023; first compound 0.3162 µM) of 0.264 and a relative viability (NCI-H2023; first compound 1 µM) of 0.219. It also gave a relative viability (NCI-H2085; first compound 0.01 µM) of 0.882, a relative viability (NCI-H2085; first compound 0.03162 µM) of 0.898 and a relative viability (NCI-H2085; first compound 0.1 µM) of 0.894. For the same molecule, the relative viability (NCI-H2085; first compound 0.3162 µM) was 1.02, the relative viability (NCI-H2085; first compound 1 µM) was 0.86 and the relative viability (NCI-H2126; first compound 0.01 µM) was 0.646. It also gave a relative viability (NCI-H2126; first compound 0.03162 µM) of 0.764, a relative viability (NCI-H2126; first compound 0.1 µM) of 0.644 and a relative viability (NCI-H2126; first compound 0.3162 µM) of 0.661. For the same molecule, the relative viability (NCI-H2126; first compound 1 µM) was 0.749, the relative viability (NCI-H3122; first compound 0.01 µM) was 0.208 and the relative viability (NCI-H3122; first compound 0.03162 µM) was 0.186. For the same molecule, the relative viability (NCI-H3122; first compound 0.1 µM) was 0.208, the relative viability (NCI-H3122; first compound 0.3162 µM) was 0.203 and the relative viability (NCI-H3122; first compound 1 µM) was 0.223. The relative viability (NCI-H322M; first compound 0.01 µM) was 0.612, the relative viability (NCI-H322M; first compound 0.03162 µM) was 0.591 and the relative viability (NCI-H322M; first compound 0.1 µM) was 0.735. It also gave a relative viability (NCI-H322M; first compound 0.3162 µM) of 0.642, a relative viability (NCI-H322M; first compound 1 µM) of 0.567 and a relative viability (NCI-H358; first compound 0.01 µM) of 0.163. It also gave a relative viability (NCI-H358; first compound 0.03162 µM) of 0.169, a relative viability (NCI-H358; first compound 0.1 µM) of 0.16 and a relative viability (NCI-H358; first compound 0.3162 µM) of 0.216. It also gave a relative viability (NCI-H358; first compound 1 µM) of 0.167, a relative viability (NCI-H441; first compound 0.01 µM) of 0.257 and a relative viability (NCI-H441; first compound 0.03162 µM) of 0.232. The relative viability (NCI-H441; first compound 0.1 µM) was 0.26, the relative viability (NCI-H441; first compound 0.3162 µM) was 0.249 and the relative viability (NCI-H441; first compound 1 µM) was 0.25. The relative viability (UMC-11; first compound 0.01 µM) was 0.862, the relative viability (UMC-11; first compound 0.03162 µM) was 0.767 and the relative viability (UMC-11; first compound 0.1 µM) was 0.969. For the same molecule, the relative viability (UMC-11; first compound 0.3162 µM) was 0.986 and the relative viability (UMC-11; first compound 1 µM) was 0.696.
